In US20240390484A1 (priority 2022, published 2024):
Read-outs that look alike come from different tables or passages of the source.

How the values were obtained:
[1] = Particle size and polydispersity index (PDI) by Dynamic Light Scattering; type: physicochemical; details: for “Ready-to-use” S2P RNA formulation PDI / “Ready-to-use” S2P RNA formulation Size: 48/40.5/10/1.5 mol %, blank-LNP added to lyophilized S2P RNA (55 ug/vial), N/P 7
Experimental: (§1) Lipid nanoparticles (LNPs) were formed or formulated by rapid mixing of an ethanol phase and an aqueous phase using a microfluidic device. The aqueous phase included a 50 mM citrate buffer (pH 5.5). The ethanol phase included an ionizable lipid (as described herein), cholesterol (Jiangsu Southeast Nanomaterials), 1,2-diastearoyl-sn-glycero-3-phosphocholine (DSPC) (Jiangsu Southeast Nanomaterials) and 1,2-dimyristoyl-rac-glycero-3-methoxypolyethylene glycol-2000 (DMG-PEG2000) (SINOPEG). A series of ionizable lipids were evaluated. These four lipid components were mixed at defined molar ratios in ethanol, for instance, at a molar ratio of 48:40.5:10:1.5 (ionizable lipid:cholesterol:DSPC:DMG-PEG2000). The generated LNP particles were purified in citrate buffer (containing sucrose) and characterized with respect to particle size, polydispersity index (PDI) and ionizable lipid concentration. The LNP solution was then diluted to the target concentration and stored at 2-8° C.
(§2) In the case of a filled LNP, for example, an LNP-encapsulated S-2P RNA liquid drug product, the preparation protocol is essentially the same, except that it was an aqueous solution of S-2P RNA in citrate buffer pH 5-6 that constitutes the aqueous phase for LNP formation. The LNP-encapsulated RNA formulation is also referred to as “RNA-LNP” in this disclosure. Regarding characterization, particle size and polydispersity index (PDI) of the RNA-LNP were determined by Dynamic Light Scattering (DLS); RNA encapsulation efficiency and concentration were determined by means of Ribogreen® assay and RNA purity was determined by agarose gel electrophoresis.
(§3) The “ready-to-use” RNA product was manufactured by transferring a predetermined amount of already formed LNP in solution to a sealed vial containing the lyophilized RNA composition, followed by mixing at room temperature. The amount of LNP added per vial (e.g., 30-100 μg RNA per vial) was determined based on the molar ionizable lipid:RNA (N/P) molar ratio of 7. In this disclosure, “ready-to-use” S-2P RNA formulations (also referred to as “LNP(S-2P RNA)”) containing 30-100 μg/mL S-2P RNA were prepared, and then characterized with respect to particle size, polydispersity index, as well as RNA concentration, complexation efficiency, and purity using the same methods as described above in Example 3.

[2] = RNA encapsulation/complexation efficiency by Ribogreen assay; type: physicochemical; details: for “Ready-to-use” S2P RNA formulation RNA complexation efficiency: 48/40.5/10/1.5 mol %, blank-LNP added to lyophilized S2P RNA (55 ug/vial), N/P 7
Experimental: as §2, §3

[3] = Stability of blank-LNP at 2-8° C. (particle size, PDI); type: physicochemical; details: blank-LNP 48/40.5/10/1.5 mol %
Experimental: as §1
Each generated blank-LNP formulation was added to and mixed with lyophilized S2P RNA, altogether yielding a series of “ready-to-use” S2P RNA test items containing the different ionizable lipids. The pharmaceutical characteristics (Table 3) and in vitro transfection efficiency (Table 4) of these “ready-to-use” RNA test items were compared head-to-head. In parallel, the stability profiles of these […] blank-LNP formulations (i.e. without RNA complexation) were assessed at 2-8° C. (see Table 5).
The generated fourteen blank-LNP formulations were characterized in terms of particle size and PDI, both at the end of manufacturing (T=0) and 8-week storage at 2-8° C. […] (defined as size increase ≤20 nm in 8 weeks), namely DMG-PEG2000 between at least 1-4 mol %, DSPC between at least 5-20 mol %, ionizable lipid between at least 30-70 mol % and cholesterol between at least 18.5-58.5 mol %.

BHK-21 cells = type: cell-based; details: 4 μg
Vero E6 cells = type: cell-based; details: 4 μg
[4] = blank-LNP, 48/40.5/10/1.5 mol % ionizable lipid/cholesterol/DSPC/DMG-PEG
[5] = ionizable lipid/Chol/DSPC/DMG-PEG 20/57.0/20/3.0 mol %
[6] = ionizable lipid/Chol/DSPC/DMG-PEG 30/55.0/12/3.0 mol %
[7] = ionizable lipid/Chol/DSPC/DMG-PEG 40/48.5/10/1.5 mol %
[8] = ionizable lipid/Chol/DSPC/DMG-PEG 45/43.5/10/1.5 mol %
[9] = ionizable lipid/Chol/DSPC/DMG-PEG 50/38.5/10/1.5 mol %
[10] = ionizable lipid/Chol/DSPC/DMG-PEG 60/30.0/8.5/1.5 mol %
[11] = ionizable lipid/Chol/DSPC/DMG-PEG 70/22.5/6/1.5 mol %
[12] = ionizable lipid/Chol/DSPC/DMG-PEG 70/22.5/6.0/1.5 mol %
[13] = ready-to-use S2P RNA, 48 hours post transfection, 48/40.5/10/1.5 mol %
[14] = various LNP batches, different molar ratios of ionizable lipid:cholesterol:DSPC:DMG-PEG2000

## CCCCCCCCCOC(=O)CCCCCCCOc1ccc(OCCCCCCCC(=O)OC(CCCCCCCC)CCCCCCCC)cc1COC(=O)CCCN(C)C
[1]
  “Ready-to-use” S2P RNA formulation PDI: 0.12
  “Ready-to-use” S2P RNA formulation Size: 173 nm
[1]; [4]
  Blank-LNP PDI: 0.13
  Blank-LNP Size: 88 nm
[1]; [5]
  Blank-LNP PDI: 0.18
  Blank-LNP Size: 82 nm
  “Ready-to-use” S2P RNA PDI: 0.21
  “Ready-to-use” S2P RNA Size: 157 nm
[1]; [6]
  Blank-LNP PDI: 0.2
  Blank-LNP Size: 75 nm
  “Ready-to-use” S2P RNA PDI: 0.21
  “Ready-to-use” S2P RNA Size: 125 nm
[1]; [7]
  Blank-LNP PDI: 0.12
  Blank-LNP Size: 90 nm
  “Ready-to-use” S2P RNA PDI: 0.18
  “Ready-to-use” S2P RNA Size: 169 nm
[1]; [8]
  Blank-LNP PDI: 0.04
  Blank-LNP Size: 87 nm
  “Ready-to-use” S2P RNA PDI: 0.12
  “Ready-to-use” S2P RNA Size: 151 nm
[1]; [9]
  Blank-LNP PDI: 0.11
  Blank-LNP Size: 83 nm
  “Ready-to-use” S2P RNA PDI: 0.13
  “Ready-to-use” S2P RNA Size: 147 nm
[1]; [10]
  Blank-LNP PDI: 0.15
  Blank-LNP Size: 76 nm
  “Ready-to-use” S2P RNA PDI: 0.13
  “Ready-to-use” S2P RNA Size: 143 nm
[1]; [11]
  Blank-LNP PDI: 0.21
  Blank-LNP Size: 77 nm
  “Ready-to-use” S2P RNA PDI: 0.16
  “Ready-to-use” S2P RNA Size: 146 nm
[2]
  “Ready-to-use” S2P RNA formulation RNA complexation efficiency: 42%
[2]; [5]
  “Ready-to-use” S2P RNA, RNA complex. efficiency: 54%
[2]; [6]
  “Ready-to-use” S2P RNA, RNA complex. efficiency: 61%
[2]; [7]
  “Ready-to-use” S2P RNA, RNA complex. efficiency: 51%
[2]; [8]
  “Ready-to-use” S2P RNA, RNA complex. efficiency: 50%
[2]; [9]
  “Ready-to-use” S2P RNA, RNA complex. efficiency: 48%
[2]; [10]
  “Ready-to-use” S2P RNA, RNA complex. efficiency: 44%
[2]; [11]
  “Ready-to-use” S2P RNA, RNA complex. efficiency: 40%
[3]
  PDI, T = 1 month: 0.09
  Size, T = 1 month: 88 nm
  Change in size (nm) vs. T0, T = 2 weeks: −9 nm
  PDI, T = 2 weeks: 0.06
  Size, T = 2 weeks: 79 nm
  PDI, T = 0: 0.13
  Size, T = 0: 88 nm
BHK-21 cells; [5]
  RBD expression in BHK-21 cells: 0.082 ng/mL
BHK-21 cells; [6]
  RBD expression in BHK-21 cells: 1.655 ng/mL
BHK-21 cells; [7]
  RBD expression in BHK-21 cells: 1.517 ng/mL
BHK-21 cells; [8]
  RBD expression in BHK-21 cells: 2.090 ng/mL
BHK-21 cells; [9]
  RBD expression in BHK-21 cells: 1.887 ng/mL
BHK-21 cells; [10]
  RBD expression in BHK-21 cells: 0.812 ng/mL
BHK-21 cells; [12]
  RBD expression in BHK-21 cells: <LOD
Vero E6 cells; [5]
  RBD expression in Vero E6 cells: <LOD
Vero E6 cells; [6]
  RBD expression in Vero E6 cells: 0.129 ng/mL
Vero E6 cells; [7]
  RBD expression in Vero E6 cells: 1.204 ng/mL
Vero E6 cells; [8]
  RBD expression in Vero E6 cells: 1.842 ng/mL
Vero E6 cells; [9]
  RBD expression in Vero E6 cells: 1.633 ng/mL
Vero E6 cells; [10]
  RBD expression in Vero E6 cells: 1.239 ng/mL
Vero E6 cells; [12]
  RBD expression in Vero E6 cells: 0.0939 ng/mL

## CCCCCCCCCOC(=O)CCCCCCCOc1ccc(OCCCCCCCC(=O)OCCCCCCCCC)c(COC(=O)CCCN(C)C)c1 [Lipid #2]
[1]
  “Ready-to-use” S2P RNA formulation PDI: 0.21
  “Ready-to-use” S2P RNA formulation Size: 211 nm
[1]; [4]
  Blank-LNP PDI: 0.09
  Blank-LNP Size: 120 nm
[3]
  Change in size (nm) vs. T0, T = 1 month: unaltered size
  PDI, T = 1 month: 0.07
  Size, T = 1 month: 121 nm
  Change in size (nm) vs. T0, T = 2 weeks: +2 nm
  PDI, T = 2 weeks: 0.09
  Size, T = 2 weeks: 122 nm
  PDI, T = 0: 0.09
  Size, T = 0: 120 nm
[3]; listed as #2
  Change in size (nm) vs. T0, T = 1 month: +1 nm
BHK-21 cells; [13]
  RBD expression in BHK-21 cells: 1.34 ng/mL
Vero E6 cells; [13]
  RBD expression in Vero E6 cells: 0.97 ng/mL

## CCCCCCCCCOC(=O)CCCCCCCOc1ccc(OCCCCCCCC(=O)OC(CCCCCCCC)CCCCCCCC)c(COC(=O)CCCN(C)C)c1 [Lipid #5]
[1]
  “Ready-to-use” S2P RNA formulation PDI: 0.13
  “Ready-to-use” S2P RNA formulation Size: 137 nm
[1]; [4]
  Blank-LNP PDI: 0.2
  Blank-LNP Size: 91 nm
[1]; [14]
  particle size: 80±15 nm
  polydispersity index: 0.10±0.05
[2]
  “Ready-to-use” S2P RNA formulation RNA complexation efficiency: 44%
[3]
  PDI, T = 1 month: 0.14
  Size, T = 1 month: 93 nm
  Change in size (nm) vs. T0, T = 2 weeks: −1 nm
  PDI, T = 2 weeks: 0.13
  Size, T = 2 weeks: 90 nm
  PDI, T = 0: 0.20
  Size, T = 0: 91 nm

## CCCCCCCCCCC(CCCCCCCCCC)C(=O)OCCCCCCOc1ccc(OCCCCCCOC(=O)C(CCCCCCCCCC)CCCCCCCCCC)c(COC(=O)CCCN(C)C)c1 [Lipid #8]
[1]
  “Ready-to-use” S2P RNA formulation PDI: 0.11
  “Ready-to-use” S2P RNA formulation Size: 130 nm
[1]; [4]
  Blank-LNP PDI: 0.13
  Blank-LNP Size: 86 nm
[2]
  “Ready-to-use” S2P RNA formulation RNA complexation efficiency: 34%
[3]
  PDI, T = 1 month: 0.17
  Size, T = 1 month: 90 nm
  Change in size (nm) vs. T0, T = 2 weeks: −3 nm
  PDI, T = 2 weeks: 0.07
  Size, T = 2 weeks: 83 nm
  PDI, T = 0: 0.13
  Size, T = 0: 86 nm
BHK-21 cells; [13]
  RBD expression in BHK-21 cells: <LOD
Vero E6 cells; [13]
  RBD expression in Vero E6 cells: <LOD

## CCCCCC/C=C/COC(=O)CCCCCCCCC(CCCCCCCCC(=O)OC/C=C/CCCCCC)OC(=O)CCCN(C)C [Lipid #9]
[1]
  “Ready-to-use” S2P RNA formulation PDI: 0.18
  “Ready-to-use” S2P RNA formulation Size: 280 nm
[1]; [4]
  Blank-LNP PDI: 0.09
  Blank-LNP Size: 207 nm
[2]
  “Ready-to-use” S2P RNA formulation RNA complexation efficiency: 34%
[3]
  Change in size (nm) vs. T0, T = 1 month: +22 nm
  PDI, T = 1 month: 0.10
  Size, T = 1 month: 229 nm
  Change in size (nm) vs. T0, T = 2 weeks: +7 nm
  PDI, T = 2 weeks: 0.05
  Size, T = 2 weeks: 214 nm
  PDI, T = 0: 0.09
  Size, T = 0: 207 nm
BHK-21 cells; [13]
  RBD expression in BHK-21 cells: 0.50 ng/mL
Vero E6 cells; [13]
  RBD expression in Vero E6 cells: 0.16 ng/mL

## CC/C=C/CCCC(CCC/C=C/CC)OC(=O)CCCCCCCC(CCCCCCCC(=O)OC/C=C/CCCCCC)COC(=O)CCCN(C)C (centres unmarked) [Lipid #10]
[1]
  “Ready-to-use” S2P RNA formulation PDI: 0.21
  “Ready-to-use” S2P RNA formulation Size: 204 nm
[1]; [4]
  Blank-LNP PDI: 0.05
  Blank-LNP Size: 91 nm
[2]
  “Ready-to-use” S2P RNA formulation RNA complexation efficiency: 34%
[3]
  Change in size (nm) vs. T0, T = 1 month: +29 nm
  PDI, T = 1 month: 0.21
  Size, T = 1 month: 120 nm
  Change in size (nm) vs. T0, T = 2 weeks: +16 nm
  PDI, T = 2 weeks: 0.11
  Size, T = 2 weeks: 107 nm
  PDI, T = 0: 0.05
  Size, T = 0: 91 nm
BHK-21 cells; [13]
  RBD expression in BHK-21 cells: 0.33 ng/mL
Vero E6 cells; [13]
  RBD expression in Vero E6 cells: 0.25 ng/mL
